Reference: ChEMBL document CHEMBL1828542, “Synthesis and biological evaluation of substituted 4-arylthiazol-2-amino derivatives as potent growth inhibitors of replicating Mycobacterium tuberculosis H₃₇Rv” (Bioorg Med Chem Lett, 2011)
In brackets after ≈: the same amount, converted by molar mass.

Experiments:
[1] = system: Mycobacterium tuberculosis; assay: Antimicrobial activity against Mycobacterium tuberculosis H37Rv after 4 weeks by agar dilution assay; type: functional; settings: 672 h
[2] = system: Mycobacterium tuberculosis; assay: Antimicrobial activity against Mycobacterium tuberculosis H37Rv after 11 days using [14]C labeled palmitic acid as substrate by radiometric Bactec 460TB method; type: functional; settings: 264 h
[3] = system: Mycobacterium tuberculosis; assay: Ratio of NTZ MIC to compound MIC for Mycobacterium tuberculosis H37Rv; type: functional
[4] = Cytotoxicity against african green monkey Vero cells after 72 hrs by resazurin assay; type: cell-based; settings: chlorocebus sabaeus
[5] = Selectivity index, ratio of CC50 african green monkey Vero cells to MIC for Mycobacterium tuberculosis H37Rv; type: functional
[6] = system: Mycobacterium tuberculosis; assay: Antimicrobial activity against replicating Mycobacterium tuberculosis; type: functional
[7] = system: Mycobacterium tuberculosis; assay: Antimicrobial activity against non-replicating Mycobacterium tuberculosis; type: functional

O=[N+]([O-])c1cccc(-c2csc(Nc3ccccc3C(F)(F)F)n2)c1
MIC [1]: > 12.5 µg/mL

CN[C@@H]1[C@H](O[C@H]2[C@H](O[C@H]3[C@H](O)[C@@H](O)[C@H](N=C(N)N)[C@@H](O)[C@@H]3N=C(N)N)O[C@@H](C)[C@]2(O)C=O)O[C@@H](CO)[C@H](O)[C@H]1O [STREPTOMYCIN]
MIC [2]: 6 µM (≈ 3.49 µg/mL)

COc1ccc(-c2csc(Nc3ccccc3C(F)(F)F)n2)cc1OC
MIC [1]: > 12.5 µg/mL

COc1cccc2c1CCC/C2=N/Nc1nc(-c2ccc(F)cc2)cs1
fold change (FC) [3]: 3 | MIC [1]: 6.25 µg/mL (≈ 17 µM) | MIC [2]: 6.25 µM (≈ 2.3 µg/mL) | CC50 at 72 h [4]: > 300 µM | Ratio [5]: >=48

CC(=O)Oc1ccccc1C(=O)Nc1ncc([N+](=O)[O-])s1 [NITAZOXANIDE]
MIC [6]: 52.1 µM (≈ 16 µg/mL) | MIC [7]: 52.1 µM (≈ 16 µg/mL)

COc1cccc2c1CCC/C2=N/Nc1nc(-c2ccc(Cl)cc2Cl)cs1
fold change (FC) [3]: 2 | MIC [1]: 12.5 µg/mL (≈ 29.9 µM)

O=C(Nc1ncc([N+](=O)[O-])s1)c1ccccc1O [TIZOXANIDE]
MIC [6]: 60.4 µM (≈ 16 µg/mL) | MIC [7]: 60.4 µM (≈ 16 µg/mL)

Fc1ccc(-c2csc(N/N=C/c3cn(Cc4ccc(Cl)cc4Cl)c4ccccc34)n2)cc1
MIC [1]: > 12.5 µg/mL

Fc1ccc(Nc2nc(-c3ccc(F)cc3)cs2)cc1
fold change (FC) [3]: 9 | MIC [1]: 1.8 µg/mL (≈ 6.24 µM) | MIC [2]: 12.5 µM (≈ 3.6 µg/mL)

Clc1ccc(Cn2cc(/C=N/Nc3nc(-c4ccc(Cl)cc4Cl)cs3)c3ccccc32)c(Cl)c1
MIC [1]: 12.5 µg/mL (≈ 22.9 µM)

COc1ccc(-c2csc(Nc3cc(OC)ccc3OC)n2)cc1
MIC [1]: > 12.5 µg/mL

COc1ccc(-c2csc(Nc3ccccc3C(F)(F)F)n2)cc1
MIC [1]: > 12.5 µg/mL

COc1ccc(OC)c(Nc2nc(-c3ccc(F)cc3)cs2)c1
MIC [1]: > 12.5 µg/mL

COc1ccc(-c2csc(N/N=C3/CCCc4c(OC)cccc43)n2)cc1OC
fold change (FC) [3]: 3 | MIC [1]: 6.25 µg/mL (≈ 15.3 µM) | MIC [2]: 6.25 µM (≈ 2.56 µg/mL) | CC50 at 72 h [4]: > 244 µM | Ratio [5]: >=39

NNC(=O)c1ccncc1 [ISONIAZID]
MIC [1]: < 1 µg/mL

COc1cccc2c1CCC/C2=N/Nc1nc(-c2cccc([N+](=O)[O-])c2)cs1
fold change (FC) [3]: 2 | MIC [1]: 12.5 µg/mL (≈ 31.7 µM)

Fc1ccc(-c2csc(Nc3ccccc3C(F)(F)F)n2)cc1
MIC [1]: > 12.5 µg/mL

COc1ccc(OC)c(Nc2nc(-c3cccc([N+](=O)[O-])c3)cs2)c1
MIC [1]: > 12.5 µg/mL

COc1ccc(-c2csc(N/N=C/c3cn(Cc4ccc(Cl)cc4Cl)c4ccccc34)n2)cc1OC
MIC [1]: > 12.5 µg/mL
